What was measured:
Assay in all cases: KINOMEscan competition binding
Settings in all cases: compound 10.0 µM
SNRK (human) = SNRK (human) (UniProt Q9NRH2)
MATK (human) = MATK (human) (UniProt P42679)
[1] = test system: EGFR (human), P00533 [G719S]
ICK (human) = ICK (human) (UniProt Q9UPZ9)
BTK (human) = BTK (human) (UniProt Q06187)
DYRK2 (human) = DYRK2 (human) (UniProt Q92630)
LRRK2 (human) = LRRK2 (human) (UniProt Q5S007)
PRKCI (human) = PRKCI (human) (UniProt P41743)
GRK4 (human) = GRK4 (human) (UniProt P32298)
DDR1 (human) = DDR1 (human) (UniProt Q08345)
STK38 (human) = STK38 (human) (UniProt Q15208)
VRK2 (human) = VRK2 (human) (UniProt Q86Y07)
TAOK2 (human) = TAOK2 (human) (UniProt Q9UL54)
PIK3C2G (human) = PIK3C2G (human) (UniProt O75747)
PLK2 (human) = PLK2 (human) (UniProt Q9NYY3)
[2] = test system: PIK3CA (human), P42336 [I800L]
KIT (human) = KIT (human) (UniProt P10721)
CDKL1 (human) = CDKL1 (human) (UniProt Q00532)
[3] = test system: EGFR (human), P00533 [L861Q]
HIPK2 (human) = HIPK2 (human) (UniProt Q9H2X6)
GRK1 (human) = GRK1 (human) (UniProt Q15835)
NIM1 (human) = NIM1 (human) (UniProt Q8IY84)
MAP2K7 (human) = MAP2K7 (human) (UniProt O14733)
[4] = test system: PIK3CA (human), P42336 [E545K]
MAP2K5 (human) = MAP2K5 (human) (UniProt Q13163)
MAP3K6 (human) = MAP3K6 (human) (UniProt O95382)
CDKL3 (human) = CDKL3 (human) (UniProt Q8IVW4)
[5] = test system: PIK3CA (human), P42336 [C420R]
HIPK3 (human) = HIPK3 (human) (UniProt Q9H422)
SIK3 (human) = SIK3 (human) (UniProt Q9Y2K2)
CDK4 CCND3 (human) = CDK4 CCND3 (human) (UniProt P11802+P30281)
CRK2 (P.falciparum) = CRK2 (P.falciparum) (UniProt P61075)
TIE1 (human) = TIE1 (human) (UniProt P35590)
IRAK1 (human) = IRAK1 (human) (UniProt P51617)
EIF2AK1 (human) = EIF2AK1 (human) (UniProt Q9BQI3)
PIK3CA (human) = PIK3CA (human) (UniProt P42336)
PIK3CG (human) = PIK3CG (human) (UniProt P48736)
MAST1 (human) = MAST1 (human) (UniProt Q9Y2H9)
GRK7 (human) = GRK7 (human) (UniProt Q8WTQ7)

TIE1 (human), sequence (P35590 whole entry, looked up): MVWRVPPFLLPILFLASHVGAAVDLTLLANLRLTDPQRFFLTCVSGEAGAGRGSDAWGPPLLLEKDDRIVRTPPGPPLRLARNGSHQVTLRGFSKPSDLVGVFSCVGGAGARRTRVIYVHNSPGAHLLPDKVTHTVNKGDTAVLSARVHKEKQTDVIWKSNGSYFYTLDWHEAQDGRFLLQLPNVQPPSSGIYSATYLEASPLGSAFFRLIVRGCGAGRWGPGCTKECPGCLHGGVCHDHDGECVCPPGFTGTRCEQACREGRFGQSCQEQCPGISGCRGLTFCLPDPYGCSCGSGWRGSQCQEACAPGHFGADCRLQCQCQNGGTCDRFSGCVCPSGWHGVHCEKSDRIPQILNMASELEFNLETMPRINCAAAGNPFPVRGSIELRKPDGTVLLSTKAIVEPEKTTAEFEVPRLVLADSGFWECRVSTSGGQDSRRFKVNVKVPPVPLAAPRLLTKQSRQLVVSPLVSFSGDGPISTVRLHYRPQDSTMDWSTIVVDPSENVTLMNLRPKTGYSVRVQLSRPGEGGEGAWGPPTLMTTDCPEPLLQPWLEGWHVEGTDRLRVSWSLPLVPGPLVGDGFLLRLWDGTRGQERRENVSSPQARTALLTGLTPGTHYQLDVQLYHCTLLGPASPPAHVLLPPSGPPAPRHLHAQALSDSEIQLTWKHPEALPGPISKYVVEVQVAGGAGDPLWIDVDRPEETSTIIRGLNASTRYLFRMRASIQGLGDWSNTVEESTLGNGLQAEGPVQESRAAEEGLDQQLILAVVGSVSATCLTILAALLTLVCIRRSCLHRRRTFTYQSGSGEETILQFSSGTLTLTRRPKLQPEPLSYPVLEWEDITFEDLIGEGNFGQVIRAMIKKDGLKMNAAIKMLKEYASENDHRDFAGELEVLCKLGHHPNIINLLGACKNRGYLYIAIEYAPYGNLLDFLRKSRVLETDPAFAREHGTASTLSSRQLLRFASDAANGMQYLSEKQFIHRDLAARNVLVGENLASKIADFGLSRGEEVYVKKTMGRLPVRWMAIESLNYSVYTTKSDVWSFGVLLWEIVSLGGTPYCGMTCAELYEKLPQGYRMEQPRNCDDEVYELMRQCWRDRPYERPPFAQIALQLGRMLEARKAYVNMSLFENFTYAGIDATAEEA
LRRK2 (human), sequence (Q5S007 whole entry, looked up): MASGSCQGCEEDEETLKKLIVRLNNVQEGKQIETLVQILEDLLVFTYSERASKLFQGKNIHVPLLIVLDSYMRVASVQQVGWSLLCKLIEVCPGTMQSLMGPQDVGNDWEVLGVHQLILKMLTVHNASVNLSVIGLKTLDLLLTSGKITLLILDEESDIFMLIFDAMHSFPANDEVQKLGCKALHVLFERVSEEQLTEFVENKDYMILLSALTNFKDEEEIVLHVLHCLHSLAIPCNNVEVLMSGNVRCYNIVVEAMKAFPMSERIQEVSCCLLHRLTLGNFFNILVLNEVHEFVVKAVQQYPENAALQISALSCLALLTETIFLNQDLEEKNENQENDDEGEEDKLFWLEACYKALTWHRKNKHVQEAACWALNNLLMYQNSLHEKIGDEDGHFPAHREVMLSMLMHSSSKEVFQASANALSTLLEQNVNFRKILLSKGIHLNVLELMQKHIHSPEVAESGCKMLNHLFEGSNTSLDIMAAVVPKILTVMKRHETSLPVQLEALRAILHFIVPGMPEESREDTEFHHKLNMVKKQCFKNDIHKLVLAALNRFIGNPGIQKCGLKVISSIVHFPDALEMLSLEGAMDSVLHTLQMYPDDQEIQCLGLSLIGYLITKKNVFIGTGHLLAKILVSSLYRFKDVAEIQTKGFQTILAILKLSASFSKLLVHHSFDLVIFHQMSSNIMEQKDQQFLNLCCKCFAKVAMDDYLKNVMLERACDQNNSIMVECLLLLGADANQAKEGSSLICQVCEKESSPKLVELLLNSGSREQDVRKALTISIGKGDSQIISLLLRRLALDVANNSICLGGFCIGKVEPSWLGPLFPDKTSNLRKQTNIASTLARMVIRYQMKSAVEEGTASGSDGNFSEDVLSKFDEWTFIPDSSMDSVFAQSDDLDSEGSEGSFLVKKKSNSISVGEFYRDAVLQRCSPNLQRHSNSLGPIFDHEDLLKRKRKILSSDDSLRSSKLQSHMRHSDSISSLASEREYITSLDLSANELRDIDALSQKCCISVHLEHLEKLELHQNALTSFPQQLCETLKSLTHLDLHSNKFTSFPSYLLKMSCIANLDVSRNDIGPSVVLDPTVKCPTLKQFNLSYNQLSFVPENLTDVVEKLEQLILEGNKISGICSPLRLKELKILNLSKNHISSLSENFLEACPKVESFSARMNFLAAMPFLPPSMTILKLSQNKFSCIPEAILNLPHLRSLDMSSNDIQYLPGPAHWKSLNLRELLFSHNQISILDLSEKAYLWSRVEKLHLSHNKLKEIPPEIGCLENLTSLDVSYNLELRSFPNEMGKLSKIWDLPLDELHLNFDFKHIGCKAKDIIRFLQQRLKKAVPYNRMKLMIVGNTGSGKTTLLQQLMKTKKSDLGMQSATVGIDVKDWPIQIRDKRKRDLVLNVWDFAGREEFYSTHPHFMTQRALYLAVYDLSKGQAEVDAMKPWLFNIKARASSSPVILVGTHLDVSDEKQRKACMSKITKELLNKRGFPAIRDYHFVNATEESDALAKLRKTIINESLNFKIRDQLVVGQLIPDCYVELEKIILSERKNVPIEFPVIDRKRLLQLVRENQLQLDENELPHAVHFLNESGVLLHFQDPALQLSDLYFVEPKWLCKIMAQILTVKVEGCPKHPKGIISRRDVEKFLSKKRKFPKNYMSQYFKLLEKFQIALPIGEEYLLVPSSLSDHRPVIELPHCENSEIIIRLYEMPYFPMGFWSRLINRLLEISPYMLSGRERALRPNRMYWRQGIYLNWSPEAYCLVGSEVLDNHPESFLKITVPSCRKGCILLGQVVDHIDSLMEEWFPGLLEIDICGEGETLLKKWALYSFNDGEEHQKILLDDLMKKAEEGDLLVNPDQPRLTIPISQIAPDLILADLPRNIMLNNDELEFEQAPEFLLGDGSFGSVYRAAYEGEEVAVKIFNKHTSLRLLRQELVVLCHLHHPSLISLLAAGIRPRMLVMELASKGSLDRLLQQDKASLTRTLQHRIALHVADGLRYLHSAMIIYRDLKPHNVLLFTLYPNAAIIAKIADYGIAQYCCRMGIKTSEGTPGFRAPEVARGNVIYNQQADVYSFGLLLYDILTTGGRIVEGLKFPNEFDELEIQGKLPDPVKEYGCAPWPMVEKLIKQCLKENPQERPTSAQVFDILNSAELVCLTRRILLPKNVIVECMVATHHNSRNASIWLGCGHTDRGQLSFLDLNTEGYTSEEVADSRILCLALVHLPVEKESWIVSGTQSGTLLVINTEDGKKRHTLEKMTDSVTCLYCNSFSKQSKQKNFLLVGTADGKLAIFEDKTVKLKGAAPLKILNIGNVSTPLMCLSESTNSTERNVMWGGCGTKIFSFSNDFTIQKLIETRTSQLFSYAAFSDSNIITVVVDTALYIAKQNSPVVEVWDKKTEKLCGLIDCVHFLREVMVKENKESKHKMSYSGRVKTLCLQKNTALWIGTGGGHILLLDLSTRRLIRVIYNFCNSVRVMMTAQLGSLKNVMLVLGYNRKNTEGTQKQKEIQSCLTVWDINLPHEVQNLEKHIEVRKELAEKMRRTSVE
EIF2AK1 (human), sequence (Q9BQI3 whole entry, looked up): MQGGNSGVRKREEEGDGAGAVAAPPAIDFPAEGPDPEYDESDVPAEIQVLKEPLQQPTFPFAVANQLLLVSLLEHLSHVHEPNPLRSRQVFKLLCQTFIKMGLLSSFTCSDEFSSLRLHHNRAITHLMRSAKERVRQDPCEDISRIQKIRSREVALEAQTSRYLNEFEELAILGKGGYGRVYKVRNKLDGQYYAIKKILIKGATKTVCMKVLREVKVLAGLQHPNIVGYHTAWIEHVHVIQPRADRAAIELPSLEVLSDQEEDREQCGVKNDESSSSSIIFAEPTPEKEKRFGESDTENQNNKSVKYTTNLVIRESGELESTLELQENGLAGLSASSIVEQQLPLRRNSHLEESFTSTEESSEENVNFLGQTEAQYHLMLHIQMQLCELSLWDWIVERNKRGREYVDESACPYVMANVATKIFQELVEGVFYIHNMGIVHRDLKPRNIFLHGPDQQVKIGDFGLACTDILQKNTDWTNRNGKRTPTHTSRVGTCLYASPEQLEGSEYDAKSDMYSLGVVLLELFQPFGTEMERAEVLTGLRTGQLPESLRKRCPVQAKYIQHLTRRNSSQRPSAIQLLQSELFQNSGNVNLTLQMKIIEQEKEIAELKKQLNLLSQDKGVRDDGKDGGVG
MAP2K7 (human), sequence (O14733 whole entry, looked up): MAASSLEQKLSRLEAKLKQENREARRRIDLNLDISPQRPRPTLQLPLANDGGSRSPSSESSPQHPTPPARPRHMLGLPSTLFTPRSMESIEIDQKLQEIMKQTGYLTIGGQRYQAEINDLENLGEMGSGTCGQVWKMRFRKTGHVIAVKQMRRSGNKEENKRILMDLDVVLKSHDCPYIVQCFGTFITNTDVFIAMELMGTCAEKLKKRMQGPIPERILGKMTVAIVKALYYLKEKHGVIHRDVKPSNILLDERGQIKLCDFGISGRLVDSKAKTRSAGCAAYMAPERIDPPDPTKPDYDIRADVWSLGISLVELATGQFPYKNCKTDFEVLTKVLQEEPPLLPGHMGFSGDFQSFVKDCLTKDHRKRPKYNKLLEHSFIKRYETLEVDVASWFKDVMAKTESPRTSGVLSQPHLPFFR
CRK2 (P.falciparum), sequence (P61075 whole entry, looked up): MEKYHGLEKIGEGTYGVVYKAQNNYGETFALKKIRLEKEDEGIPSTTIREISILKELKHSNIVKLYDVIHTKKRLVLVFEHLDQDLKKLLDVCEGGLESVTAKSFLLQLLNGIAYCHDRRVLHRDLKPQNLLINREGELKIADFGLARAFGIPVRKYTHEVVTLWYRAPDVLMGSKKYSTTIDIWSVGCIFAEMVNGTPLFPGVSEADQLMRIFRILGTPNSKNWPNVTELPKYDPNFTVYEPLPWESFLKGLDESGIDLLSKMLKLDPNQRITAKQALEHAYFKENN

O=C(NC1CC1)c1cccc(-c2ccc3c(NC(=O)C4CC4)n[nH]c3c2)c1
kinase still bound, per cent of control (SNRK (human)): 100% | kinase still bound, per cent of control (MATK (human)): 68% | kinase still bound, per cent of control [1]: 85% | kinase still bound, per cent of control (ICK (human)): 13% | kinase still bound, per cent of control (BTK (human)): 100% | kinase still bound, per cent of control (DYRK2 (human)): 36% | kinase still bound, per cent of control (LRRK2 (human)): 100% | kinase still bound, per cent of control (PRKCI (human)): 74% | kinase still bound, per cent of control (GRK4 (human)): 14% | kinase still bound, per cent of control (DDR1 (human)): 71% | kinase still bound, per cent of control (STK38 (human)): 85% | kinase still bound, per cent of control (VRK2 (human)): 100% | kinase still bound, per cent of control (TAOK2 (human)): 20% | kinase still bound, per cent of control (PIK3C2G (human)): 100% | kinase still bound, per cent of control (PLK2 (human)): 88% | kinase still bound, per cent of control [2]: 100% | kinase still bound, per cent of control (KIT (human)): 37% | kinase still bound, per cent of control (CDKL1 (human)): 58% | kinase still bound, per cent of control [3]: 69% | kinase still bound, per cent of control (HIPK2 (human)): 36% | kinase still bound, per cent of control (GRK1 (human)): 100% | kinase still bound, per cent of control (NIM1 (human)): 100% | kinase still bound, per cent of control (MAP2K7 (human)): 100% | kinase still bound, per cent of control [4]: 95% | kinase still bound, per cent of control (MAP2K5 (human)): 5% | kinase still bound, per cent of control (MAP3K6 (human)): 86% | kinase still bound, per cent of control (CDKL3 (human)): 55% | kinase still bound, per cent of control [5]: 100% | kinase still bound, per cent of control (HIPK3 (human)): 62% | kinase still bound, per cent of control (SIK3 (human)): 100% | kinase still bound, per cent of control (CDK4 CCND3 (human)): 82% | kinase still bound, per cent of control (CRK2 (P.falciparum)): 100% | kinase still bound, per cent of control (TIE1 (human)): 31% | kinase still bound, per cent of control (IRAK1 (human)): 82% | kinase still bound, per cent of control (EIF2AK1 (human)): 100% | kinase still bound, per cent of control (PIK3CA (human)): 99% | kinase still bound, per cent of control (PIK3CG (human)): 90% | kinase still bound, per cent of control (MAST1 (human)): 94% | kinase still bound, per cent of control (GRK7 (human)): 84%

CN(C)C/C=C/C(=O)Nc1cccc(Nc2ncc3c(n2)N(C)c2ccccc2C(=O)N3C)c1
kinase still bound, per cent of control (SNRK (human)): 58% | kinase still bound, per cent of control (MATK (human)): 69% | kinase still bound, per cent of control [1]: 67% | kinase still bound, per cent of control (ICK (human)): 70% | kinase still bound, per cent of control (BTK (human)): 42% | kinase still bound, per cent of control (DYRK2 (human)): 47% | kinase still bound, per cent of control (LRRK2 (human)): 31% | kinase still bound, per cent of control (PRKCI (human)): 97% | kinase still bound, per cent of control (GRK4 (human)): 66% | kinase still bound, per cent of control (DDR1 (human)): 5.4% | kinase still bound, per cent of control (STK38 (human)): 74% | kinase still bound, per cent of control (VRK2 (human)): 73% | kinase still bound, per cent of control (TAOK2 (human)): 0% | kinase still bound, per cent of control (PIK3C2G (human)): 76% | kinase still bound, per cent of control (PLK2 (human)): 37% | kinase still bound, per cent of control [2]: 55% | kinase still bound, per cent of control (KIT (human)): 66% | kinase still bound, per cent of control (CDKL1 (human)): 83% | kinase still bound, per cent of control [3]: 73% | kinase still bound, per cent of control (HIPK2 (human)): 89% | kinase still bound, per cent of control (GRK1 (human)): 100% | kinase still bound, per cent of control (NIM1 (human)): 21% | kinase still bound, per cent of control (MAP2K7 (human)): 97% | kinase still bound, per cent of control [4]: 100% | kinase still bound, per cent of control (MAP2K5 (human)): 45% | kinase still bound, per cent of control (MAP3K6 (human)): 94% | kinase still bound, per cent of control (CDKL3 (human)): 100% | kinase still bound, per cent of control [5]: 72% | kinase still bound, per cent of control (HIPK3 (human)): 85% | kinase still bound, per cent of control (SIK3 (human)): 20% | kinase still bound, per cent of control (CDK4 CCND3 (human)): 85% | kinase still bound, per cent of control (CRK2 (P.falciparum)): 100% | kinase still bound, per cent of control (TIE1 (human)): 5.4% | kinase still bound, per cent of control (IRAK1 (human)): 19% | kinase still bound, per cent of control (EIF2AK1 (human)): 100% | kinase still bound, per cent of control (PIK3CA (human)): 54% | kinase still bound, per cent of control (PIK3CG (human)): 0% | kinase still bound, per cent of control (MAST1 (human)): 100% | kinase still bound, per cent of control (GRK7 (human)): 100%
